Laboratory results as given in patent publication US10144742B2 (Millennium Pharmaceuticals, Inc., priority 2014, dated 2018).
Where two headings read alike, the source gives them in different places.

How the values were obtained:
hNAMPT protein = hNAMPT protein (Homo sapiens (Human), UniProt P43490); assay: NAMPT enzyme assay (TR-FRET/HTRF, BodiPY ligand, anti 6His-Tb); assay type: binding; conditions: for IC50: NAMPT IC50 range class, read-out: IC50; for inhibition at 1 µM: read-out: Percent Inhibition
Outline: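 Compound or DMSO was incubated for 1 h at room temperature, protected from light, with BodiPY ligand and hNAMPT labelled by terbium anti-6His antibody. The 520 nm to 486 nm emission ratio after 320 nm excitation gave inhibition versus vehicle, from which concentration-response curves yielded IC50.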

PC3 cells = assay: PC3 growth inhibition (Cell-titer glo, 72 hours); assay type: cell-based; conditions: Homo sapiens, PC-3, PC3 cells, 72 hours, Cell-titer glo, read-out: Percent Inhibition (PC3 growth inhibition); for inhibition at 1 µM: compound concentration 1 μM; for inhibition at 1.667 µM: compound concentration 1.667 μM; for inhibition at 1.852 µM: compound concentration 1.852 μM
Outline: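 Compounds in AIM serum-free medium were applied for 72 h at 37 °C, 5% CO2 to PC3 cells plated overnight from RPMI1640 culture. Luminescence after 10 min CellTiter-Glo, normalised to DMSO, gave % viability at 1 μM or 1.667 μM, or GI50/LD50.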

Sequence of hNAMPT protein (P43490 whole entry): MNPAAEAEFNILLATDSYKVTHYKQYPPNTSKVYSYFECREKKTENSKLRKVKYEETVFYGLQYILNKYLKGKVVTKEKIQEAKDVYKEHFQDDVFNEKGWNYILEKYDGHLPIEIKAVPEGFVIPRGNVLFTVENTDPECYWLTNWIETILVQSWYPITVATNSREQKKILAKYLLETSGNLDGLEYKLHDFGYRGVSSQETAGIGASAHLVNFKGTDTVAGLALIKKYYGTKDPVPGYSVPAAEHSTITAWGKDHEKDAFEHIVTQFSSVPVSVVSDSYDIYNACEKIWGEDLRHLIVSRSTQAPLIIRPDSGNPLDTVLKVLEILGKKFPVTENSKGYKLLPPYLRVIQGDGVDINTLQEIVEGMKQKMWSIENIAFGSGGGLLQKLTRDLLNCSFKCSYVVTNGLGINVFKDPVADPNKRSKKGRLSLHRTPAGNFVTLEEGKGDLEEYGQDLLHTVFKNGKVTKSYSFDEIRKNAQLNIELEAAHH

SMILES | IC50 (hNAMPT protein) | inhibition at 1 µM (hNAMPT protein; compound concentration 1 μM) | inhibition at 1 µM (PC3 cells) | inhibition at 1.667 µM (PC3 cells) | inhibition at 1 µM (hNAMPT protein) | inhibition at 1.852 µM (PC3 cells)
N#Cc1ccccc1-c1nc2ccc(C(=O)NCCCn3ccnc3)cc2nc1-c1ccccc1 [Compound I-54, 2-(2-cyanophenyl)-N-[3-(1H-imidazol-1-yl)propyl]-3-phenylquinoxaline-6-carboxamide] | 500 to 1000 nM | 50% | -7% | – | – | –
COc1cccc(-c2nc3cc(C(=O)NCCCn4ccnc4)ccc3nc2N2CCOCC2)c1 [Compound I-55, N-[3-(1H-imidazol-1-yl)propyl]-3-(3-methoxyphenyl)-2-(morpholin-4-yl)quinoxaline-6-carboxamide] | < 100 nM | 102% | -7% | – | – | –
O=C(c1ccc2nc(-c3ccc(F)cc3)c(-c3ccc(F)cc3)nc2c1)N1CCn2ccnc2C1 [Compound I-56, [2,3-bis(4-fluorophenyl)quinoxalin-6-yl](5,6-dihydroimidazo[1,2-a]pyrazin-7(8H)-yl)methanone] | 2000 to 10000 nM | 33% | 104% | – | – | –
Cc1nccn1CCCNC(=O)c1ccc2nc(-c3ccc(F)cc3)c(-c3ccc(F)cc3)nc2c1 [Compound I-57, 2,3-bis(4-fluorophenyl)-N-[3-(2-methyl-1H-imidazol-1-yl)propyl]quinoxaline-6-carboxamide] | < 100 nM | 96% | 45% | – | – | –
CN(C)c1nc2ccc(C(=O)NCCc3cncn3C)cc2nc1-c1ccc(F)cc1 [Compound I-58, 2-(dimethylamino)-3-(4-fluorophenyl)-N-[2-(1-methyl-1H-imidazol-5-yl)ethyl]quinoxaline-6-carboxamide] | 500 to 1000 nM | 64% | – | 50% | – | –
COC1CN(c2nc3ccc(C(=O)NCCCn4ccnc4)cc3nc2-c2ccccc2)C1 [Compound I-59, N-[3-(1H-imidazol-1-yl)propyl]-2-(3-methoxyazetidin-1-yl)-3-phenylquinoxaline-6-carboxamide] | 1000 to 2000 nM | 49% | -6% | – | – | –
O=C(NCCCn1ccnc1)c1ccc2nc(-c3ccsc3)c(-c3ccccc3)nc2c1 [Compound I-60, N-[3-(1H-imidazol-1-yl)propyl]-3-phenyl-2-(3-thienyl)quinoxaline-6-carboxamide] | 500 to 1000 nM | 51% | -4% | – | – | –
O=C(NCCCn1ccnc1)c1ccc2nc(-c3cccc(OC(F)(F)F)c3)c(-c3ccccc3)nc2c1 [Compound I-61, N-[3-(1H-imidazol-1-yl)propyl]-3-phenyl-2-[3-(trifluoromethoxy)phenyl]quinoxaline-6-carboxamide] | 100 to 500 nM | 75% | -7% | – | – | –
O=C(NCCCn1ccnc1)c1ccc2nc(NCc3ccccc3)c(-c3ccccc3)nc2c1 [Compound I-62, 2-(benzylamino)-N-[3-(1H-imidazol-1-yl)propyl]-3-phenylquinoxaline-6-carboxamide] | 2000 to 10000 nM | 24% | -4% | – | – | –
CC(C)(C)OC(=O)NCc1ccc(-c2nc3cc(C(=O)NCCCn4ccnc4)ccc3nc2-c2ccccc2)cc1 [Compound I-63, tert-Butyl [4-(7-{[3-(1H-imidazol-1-yl)propyl]carbamoyl}-3-phenylquinoxalin-2-yl)benzyl]carbamate] | 2000 to 10000 nM | – | 25% | – | 17% | –
O=C(NCc1ccc2nccn2c1)c1ccc2nc(N3CCC(N4CCOCC4)CC3)c(-c3ccc(F)cc3)nc2c1 [Compound I-64, 3-(4-fluorophenyl)-N-(imidazo[1,2-a]pyridin-6-ylmethyl)-2-[4-(morpholin-4-yl)piperidin-1-yl]quinoxaline-6-carboxamide] | < 100 nM | 98% | – | – | – | 2%
O=C(NCCOc1cccnc1)c1ccc2nc(-c3ccc(F)cc3)c(-c3ccc(F)cc3)nc2c1 [Compound I-65, 2,3-bis(4-fluorophenyl)-N-[2-(pyridin-3-yloxy)ethyl]quinoxaline-6-carboxamide] | < 100 nM | 95% | – | 2% | – | –
CC(C)(C)OC(=O)N1CCN(C2CCN(c3nc4ccc(C(=O)NCCCn5ccnc5)cc4nc3-c3ccccc3)CC2)CC1 [Compound I-66, tert-butyl 4-[1-(6-{[3-(1H-imidazol-1-yl)propyl]carbamoyl}-3-phenylquinoxalin-2-yl)piperidin-4-yl]piperazine-1-carboxylate] | < 100 nM | 102% | -1% | – | – | –
COc1cccc(-c2nc3cc(C(=O)NCCc4cccnc4)ccc3nc2N2CCC(O)CC2)c1 [Compound I-67, 2-(4-hydroxypiperidin-1-yl)-3-(3-methoxyphenyl)-N-[2-(pyridin-3-yl)ethyl]quinoxaline-6-carboxamide] | < 100 nM | 96% | – | 2% | – | –
Cn1cc2c(n1)OCCN(C(=O)c1ccc3nc(-c4ccc(F)cc4)c(-c4ccc(F)cc4)nc3c1)C2 [Compound I-68, [2,3-bis(4-fluorophenyl)quinoxalin-6-yl](2-methyl-2,4,6,7-tetrahydro-5H-pyrazolo[4,3-f][1,4]oxazepin-5-yl)methanone] | 2000 to 10000 nM | 16% | 101% | – | – | –
O=C(NCCCn1ccnc1)c1ccc2nc(-c3ccccc3)c(-c3ccc4nccn4c3)nc2c1 [Compound I-69, N-[3-(1H-imidazol-1-yl)propyl]-3-(imidazo[1,2-a]pyridin-6-yl)-2-phenylquinoxaline-6-carboxamide] | 100 to 500 nM | 75% | 0% | – | – | –
COc1cccc(-c2nc3cc(C(=O)NCCCc4cccnc4)ccc3nc2N2CCC(N3CCOCC3)CC2)c1 [Compound I-70, 3-(3-methoxyphenyl)-2-[4-(morpholin-4-yl)piperidin-1-yl]-N-[3-(pyridin-3-yl)propyl]quinoxaline-6-carboxamide] | < 100 nM | > 99% | – | 2% | – | –
O=C(CCCn1ccnc1)Nc1ccc2nc(-c3ccc(F)cc3)c(-c3ccc(F)cc3)nc2c1 [Compound I-72, N-[2,3-Bis(4-fluorophenyl)quinoxalin-6-yl]-4-(1H-imidazol-1-yl)butanamide] | 1000 to 2000 nM | 46% | 2% | – | – | –
COc1cccc(-c2nc3cc(C(=O)NCCc4cccnc4)ccc3nc2Cl)c1 [Compound I-73, 2-Chloro-3-(3-methoxyphenyl)-N-[2-(pyridin-3-yl)ethyl]quinoxaline-6-carboxamide] | 1000 to 2000 nM | 13% | – | – | – | > 99%
CC(C)(C)OC(=O)NC1CCN(C2CCN(c3nc4ccc(C(=O)NCCCn5ccnc5)cc4nc3-c3ccccc3)CC2)CC1 [Compound I-74, tert-Butyl [1′-(6-{[3-(1H-imidazol-1-yl)propyl]carbamoyl}-3-phenylquinoxalin-2-yl)-1,4′-bipiperidin-4-yl]carbamate] | < 100 nM | 100% | -2% | – | – | –
O=C(c1ccc2nc(-c3ccc(F)cc3)c(-c3ccc(F)cc3)nc2c1)N1CCc2[nH]ccc2C1 [Compound I-75, [2,3-bis(4-fluorophenyl)quinoxalin-6-yl](1,4,6,7-tetrahydro-5H-pyrrolo[3,2-c]pyridin-5-yl)methanone] | 2000 to 10000 nM | 16% | 96% | – | – | –
O=C(NCc1ccccn1)c1ccc2nc(-c3ccccc3)c(-c3ccccc3)nc2c1 [Compound I-76, 2,3-diphenyl-N-(pyridin-2-ylmethyl)quinoxaline-6-carboxamide] | 2000 to 10000 nM | 29% | 92% | – | – | –
O=C(NCCCc1nccs1)c1ccc2nc(N3CCC(O)CC3)c(-c3ccc(F)cc3)nc2c1 [Compound I-77, 3-(4-Fluorophenyl)-2-(4-hydroxypiperidin-1-yl)-N-[3-(1,3-thiazol-2-yl)propyl]quinoxaline-6-carboxamide] | 100 to 500 nM | 86% | – | > 99% | – | –
COC1CCN(c2nc3ccc(C(=O)NCCCc4ncc[nH]4)cc3nc2-c2ccc(F)cc2)CC1 [Compound I-78, 3-(4-fluorophenyl)-N-[3-(1H-imidazol-2-yl)propyl]-2-(4-methoxypiperidin-1-yl)quinoxaline-6-carboxamide] | < 100 nM | > 99% | – | 2% | – | –
O=C(NCCCn1ccnc1)c1ccc2nc(-c3ccccc3)c(-c3ccc(Cl)cc3)nc2c1 [Compound I-79, 3-(4-chlorophenyl)-N-[3-(1H-imidazol-1-yl)propyl]-2-phenylquinoxaline-6-carboxamide] | < 100 nM | 93% | -8% | – | – | –
O=C(NCCCn1ccnc1)c1ccc2nc(Oc3ccccc3)c(-c3ccccc3)nc2c1 [Compound I-80, N-[3-(1H-Imidazol-1-yl)propyl]-2-phenoxy-3-phenylquinoxaline-6-carboxamide] | 500 to 1000 nM | – | 1% | – | 65% | –
CN1CCN(c2nc3ccc(C(=O)NCCCn4ccnc4)cc3nc2-c2ccccc2)CC1=O [Compound I-81, N-[3-(1H-imidazol-1-yl)propyl]-2-(4-methyl-3-oxopiperazin-1-yl)-3-phenylquinoxaline-6-carboxamide] | 500 to 1000 nM | 63% | -7% | – | – | –
